IC50 and efflux ratio data for eight molecules are collected here from patent US20240262826A1, “WILD TYPE KIT INHIBITORS” (Blueprint Medicines Corporation, priority 2022, published 2024).

In one data set the target is wild type c-kit (Homo sapiens (Human), UniProt P10721). The experiment in a line: PathScan phospho c-kit (Tyr719) sandwich ELISA in SCF-stimulated M-07e cells (pKIT assay). Type of data set: cell-based. Conditions: ELISA assay (values not marked *). The method, boiled down:
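Tyr719-phosphorylated c-kit was measured by colorimetric (TMB) sandwich ELISA in lysates of M-07e cells. Cells were starved 4 h without serum or GM-CSF, dosed 60 min at 37 °C with compound (8 points, duplicate, 0.25% DMSO), and stimulated 10 min with human SCF (500 ng/mL as added). IC50 values came from 4-parameter logistic regression.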

For data set [1], the target named is human P-glycoprotein (P-gp, MDR1) (Homo sapiens (Human), UniProt P08183). The experiment in a line: MDCK-MDR1 cell monolayer drug transport assay (P-gp efflux ratio). It counts as in vitro ADME. Conditions: pH 7.4, MDCK-MDR1 cells, 1 uM concentration of compound, read-out: Pgp Efflux Ratio, 1 uM. In short, it runs like this:
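P-gp substrate potential tested in MDCK-MDR1 monolayers on Transwell supports, cultured 4-8 days; monolayers with TEER <42 ohms·cm2 discarded. Transport run in HBSS (10 mM HEPES, pH 7.4) at 37° C with compound working solution at 1 μM.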

One may read the IC50 as the concentration that gives 50% inhibition.

Sequence of human P-glycoprotein (P-gp, MDR1) (P08183 whole entry): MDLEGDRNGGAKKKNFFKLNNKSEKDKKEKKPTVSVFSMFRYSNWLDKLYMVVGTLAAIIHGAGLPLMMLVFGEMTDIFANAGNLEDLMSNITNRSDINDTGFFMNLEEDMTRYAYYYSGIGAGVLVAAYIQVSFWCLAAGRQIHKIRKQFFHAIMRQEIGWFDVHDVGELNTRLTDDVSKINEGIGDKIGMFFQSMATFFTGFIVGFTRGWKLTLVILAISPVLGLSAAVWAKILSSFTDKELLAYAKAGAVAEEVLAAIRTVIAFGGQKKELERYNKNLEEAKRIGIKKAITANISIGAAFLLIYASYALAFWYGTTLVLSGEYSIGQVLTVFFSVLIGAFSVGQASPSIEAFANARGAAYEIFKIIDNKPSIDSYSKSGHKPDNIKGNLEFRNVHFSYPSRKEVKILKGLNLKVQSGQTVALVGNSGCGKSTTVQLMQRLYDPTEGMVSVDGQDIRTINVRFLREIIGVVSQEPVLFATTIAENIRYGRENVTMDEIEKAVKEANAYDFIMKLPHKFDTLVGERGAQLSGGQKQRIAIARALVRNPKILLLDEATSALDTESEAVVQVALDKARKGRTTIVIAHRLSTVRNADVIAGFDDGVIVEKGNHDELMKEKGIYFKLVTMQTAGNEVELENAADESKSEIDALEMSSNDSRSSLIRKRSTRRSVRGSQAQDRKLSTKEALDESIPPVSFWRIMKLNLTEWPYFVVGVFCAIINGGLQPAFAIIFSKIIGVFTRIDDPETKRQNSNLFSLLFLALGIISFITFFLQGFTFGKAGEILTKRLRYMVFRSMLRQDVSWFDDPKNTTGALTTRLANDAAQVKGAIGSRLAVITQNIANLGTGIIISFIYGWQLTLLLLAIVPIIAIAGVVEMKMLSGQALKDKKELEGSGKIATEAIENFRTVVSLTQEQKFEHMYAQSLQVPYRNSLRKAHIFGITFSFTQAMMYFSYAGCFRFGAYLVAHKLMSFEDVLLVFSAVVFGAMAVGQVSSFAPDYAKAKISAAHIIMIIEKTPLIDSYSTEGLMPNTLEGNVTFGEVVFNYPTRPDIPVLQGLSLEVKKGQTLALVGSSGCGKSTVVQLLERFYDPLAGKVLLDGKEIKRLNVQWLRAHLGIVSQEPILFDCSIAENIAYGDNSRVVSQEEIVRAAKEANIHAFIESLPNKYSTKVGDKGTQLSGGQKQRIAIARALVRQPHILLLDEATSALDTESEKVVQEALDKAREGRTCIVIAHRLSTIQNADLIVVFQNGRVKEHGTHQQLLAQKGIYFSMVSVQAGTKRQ
Sequence of wild type c-kit (P10721 26-976): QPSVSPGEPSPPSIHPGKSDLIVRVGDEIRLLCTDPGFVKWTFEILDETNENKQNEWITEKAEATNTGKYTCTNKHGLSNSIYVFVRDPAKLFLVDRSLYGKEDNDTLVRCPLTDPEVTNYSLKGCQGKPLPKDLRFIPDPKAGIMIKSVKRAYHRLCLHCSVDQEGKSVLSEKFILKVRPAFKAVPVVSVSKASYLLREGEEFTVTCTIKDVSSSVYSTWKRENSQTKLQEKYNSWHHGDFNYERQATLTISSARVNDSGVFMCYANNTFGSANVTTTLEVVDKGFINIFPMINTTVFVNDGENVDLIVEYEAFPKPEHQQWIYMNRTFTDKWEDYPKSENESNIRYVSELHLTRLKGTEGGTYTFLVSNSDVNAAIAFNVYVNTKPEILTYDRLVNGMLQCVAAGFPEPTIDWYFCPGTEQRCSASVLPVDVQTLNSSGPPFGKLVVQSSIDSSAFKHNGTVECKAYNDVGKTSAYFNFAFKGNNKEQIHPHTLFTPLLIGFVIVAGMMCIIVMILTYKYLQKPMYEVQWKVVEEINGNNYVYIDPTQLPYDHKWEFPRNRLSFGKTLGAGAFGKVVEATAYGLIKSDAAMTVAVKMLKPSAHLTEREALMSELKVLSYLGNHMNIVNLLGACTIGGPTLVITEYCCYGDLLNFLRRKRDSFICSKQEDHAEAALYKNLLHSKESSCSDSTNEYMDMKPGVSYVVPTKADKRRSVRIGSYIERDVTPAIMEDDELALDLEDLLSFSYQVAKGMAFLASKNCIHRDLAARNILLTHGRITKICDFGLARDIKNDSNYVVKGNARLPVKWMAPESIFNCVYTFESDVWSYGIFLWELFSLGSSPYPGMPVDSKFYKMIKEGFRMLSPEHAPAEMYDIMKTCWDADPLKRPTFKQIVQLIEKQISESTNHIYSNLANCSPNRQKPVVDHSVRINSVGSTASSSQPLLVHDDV

Molecule `O=C(Nc1cc(-n2nnc([C@H]3C[C@@H]3F)n2)ccc1Cl)c1cnn2ccc(-c3cnn(CC4(O)CCOCC4)c3)cc12` (single isomer, unassigned) [Example 271, N-(2-chloro-5-(5-((1R,2S)-2-fluorocyclopropyl)-2H-tetrazol-2-yl)phenyl)-5-(1-((4-hydroxytetrahydro-2H-pyran-4-yl)methyl)-1H-pyrazol-4-yl)pyrazolo[1,5-a]pyridine-3-carboxamide or N-(2-chloro-5-(5-((1S,2R)-2-fluorocyclopropyl)-2H-tetrazol-2-yl)phenyl)-5-(1-((4-hydroxytetrahydro-2H-pyran-4-yl)methyl)-1H-pyrazol-4-yl)pyrazolo[1,5-a]pyridine-3-carboxamide] came in with a half-maximal inhibitory concentration (IC50) on wild type c-kit of 0.3 nM. In data set [1], the efflux ratio at 2 h, 1 µM stood at 2.2.

For the molecule `COCCNc1ccn2ncc(C(=O)Nc3cc(-c4nnn(C5CN(C(=O)OC)C5)n4)c(F)cc3C)c2c1` [Example 114, methyl 3-(5-(2-fluoro-5-(5-((2-methoxyethyl)amino)pyrazolo[1,5-a]pyridine-3-carboxamido)-4-methylphenyl)-2H-tetrazol-2-yl)azetidine-1-carboxylate], at wild type c-kit, the IC50 is 31.3 nM. Besides, in data set [1], the efflux ratio at 2 h, 1 µM is 14.6.

In turn, `Cc1ccc(-c2nnn([C@H]3C[C@@H](C(F)(F)F)C3)n2)cc1NC(=O)c1cnn2ccc(N3CCN(CCO)CC3)cc12` [Example 106, 5-(4-(2-hydroxyethyl)piperazin-1-yl)-N-(2-methyl-5-(2-((1s,3s)-3-(trifluoromethyl)cyclobutyl)-2H-tetrazol-5-yl)phenyl)pyrazolo[1,5-a]pyridine-3-carboxamide] came in with an IC50 against wild type c-kit of 5.8 nM. In data set [1], the efflux ratio at 2 h, 1 µM was 37.4.

The molecule `COC(=O)N1CC(c2cnn(-c3ccc(C)c(NC(=O)c4cnn5ccc(N(C)CCO)cc45)c3)n2)C1` [Example 84, methyl 3-(2-(3-(5-((2-hydroxyethyl)(methyl)amino)pyrazolo[1,5-a]pyridine-3-carboxamido)-4-methylphenyl)-2H-1,2,3-triazol-4-yl)azetidine-1-carboxylate] yielded an IC50 against wild type c-kit of 21.9 nM. Also, the efflux ratio at 2 h, 1 µM in data set [1] was found to be 51.9.

For `COC(=O)N1CC(n2nnc(-c3ccc(C)c(NC(=O)c4cnn5ccc(N6CC[C@H]6CO)cc45)c3)n2)C1` [Example 90, methyl (S)-3-(5-(3-(5-(2-(hydroxymethyl)azetidin-1-yl)pyrazolo[1,5-a]pyridine-3-carboxamido)-4-methylphenyl)-2H-tetrazol-2-yl)azetidine-1-carboxylate], at wild type c-kit, inhibition was half-maximal at 87.7 nM (IC50). Besides, the efflux ratio at 2 h, 1 µM in data set [1] stood at 33.9.

For the molecule `COCCCc1ccn2ncc(C(=O)Nc3cc(-c4nnn(C5CN(C(=O)OC)C5)n4)ccc3C)c2c1` [Example 58, methyl 3-(5-(3-(5-(3-methoxypropyl)pyrazolo[1,5-a]pyridine-3-carboxamido)-4-methylphenyl)-2H-tetrazol-2-yl)azetidine-1-carboxylate], the concentration for half-maximal inhibition (IC50) against wild type c-kit was 126 nM. Further, the efflux ratio at 2 h, 1 µM in data set [1] turned out to be 4.1.

In the case of `COC[C@@](C)(O)Cn1cc(-c2ccn3ncc(C(=O)Nc4cc(-c5nnn(C6CC6)n5)ccc4C)c3c2)cn1` (single isomer, unassigned) [Example 268, (S)-N-(5-(2-cyclopropyl-2H-tetrazol-5-yl)-2-methylphenyl)-5-(1-(2-hydroxy-3-methoxy-2-methylpropyl)-1H-pyrazol-4-yl)pyrazolo[1,5-a]pyridine-3-carboxamide or (R)-N-(5-(2-cyclopropyl-2H-tetrazol-5-yl)-2-methylphenyl)-5-(1-(2-hydroxy-3-methoxy-2-methylpropyl)-1H-pyrazol-4-yl)pyrazolo[1,5-a]pyridine-3-carboxamide], at wild type c-kit, it took 1.6 nM to reach half-maximal inhibition (IC50). For the same molecule, the efflux ratio at 2 h, 1 µM in data set [1] stood at 5.2.

At wild type c-kit, `COC(=O)N1CC(n2nnc(-c3ccc(C)c(NC(=O)c4cnn5ccc(N6CCN(C)CC6)cc45)c3)n2)C1` [Example 66, methyl 3-(5-(4-methyl-3-(5-(4-methylpiperazin-1-yl)pyrazolo[1,5-a]pyridine-3-carboxamido)phenyl)-2H-tetrazol-2-yl)azetidine-1-carboxylate] showed a 50% inhibitory concentration (IC50) of 64.9 nM. The efflux ratio at 2 h, 1 µM in data set [1] stood at 13.5.
